Measured values as given in patent publication US6472349B1, “Pyridine-2,3-dicarboxylic acid diamides” (BASF Aktiengesellschaft, priority 1999, dated 2002).

Columns and labels:
GALAP = test: Herbicidal activity post-emergence in greenhouse, catchweed bedstraw; assay type: in vivo; conditions: application rate 0.5 kg of a.s./ha, 100 = complete destruction, 0 = no damage
Source text: (§1) The herbicidal action of the pyridine-2,3-dicarboxamides of the formula I was examined in greenhouse experiments: […]
(§2) The growing containers used were plastic pots containing loamy sand with approximately 3.0% of humus as the substrate. The seeds of the test plants were sown separately for each species.
(§3) For the post-emergence treatment, the test plants were first grown to a plant height of 3 to 15 cm, depending on the growth habit, and then treated with the active ingredients which had been suspended or emulsified in water. The test plants were either sown directly and grown in the same containers or first grown separately as seedlings and transplanted into the test containers a few days prior to treatment. The rate of application for the post-emergence treatment was 0.5; 0.0625; 0.0313 or 0.0156 kg/ha of a.s.
(§4) Depending on the species, the plants were kept at 10-25° C. or 20-35° C. The test period extended over 2 to 4 weeks. During this time, the plants were tended, and their response to the individual treatments was evaluated.
(§5) Evaluation was carried out using a scale from 0 to 100. 100 means no emergence of the plants or complete destruction of at least the above-ground parts, and 0 means no damage or normal course of growth.
(§6) The plants used in the greenhouse experiments belonged to the following species: […]

IPOSS = test: Herbicidal activity post-emergence in greenhouse, morning glory; assay type: in vivo; conditions: 100 = complete destruction, 0 = no damage
Source text: as §1, §2, §3, §4, §5, §6

VIOAR = test: Herbicidal activity post-emergence in greenhouse, violet; assay type: in vivo; conditions: application rate 0.5 kg of a.s./ha, 100 = complete destruction, 0 = no damage
Source text: as §1, §2, §3, §4, §5, §6

ECGCG = test: Herbicidal activity post-emergence in greenhouse, barnyard grass; assay type: in vivo; conditions: application rate 0.5 kg of a.s./ha, 100 = complete destruction, 0 = no damage
Source text: as §1, §2, §3, §4, §5, §6

ALOMY = test: Herbicidal activity post-emergence in greenhouse, blackgrass; assay type: in vivo; conditions: 100 = complete destruction, 0 = no damage
Source text: as §1, §2, §3, §4, §5, §6

AMARE = test: Herbicidal activity post-emergence in greenhouse, redroot pigweed; assay type: in vivo; conditions: 100 = complete destruction, 0 = no damage
Source text: as §1, §2, §3, §4, §5, §6

SOLNI = test: Herbicidal activity post-emergence in greenhouse, black nightshade; assay type: in vivo; conditions: 100 = complete destruction, 0 = no damage
Source text: as §1, §2, §3, §4, §5, §6

[1] = application rate 0.0313 kg of a.s./ha
[2] = application rate 0.0625 kg of a.s./ha

Structure (SMILES)	melting point [°C]	Herbicidal activity (scale 0 to 100), ALOMY (ALOMY; [1])	Herbicidal activity (scale 0 to 100), ALOMY (ALOMY; [2])	Herbicidal activity (scale 0 to 100), AMARE (AMARE; [1])	Herbicidal activity (scale 0 to 100), AMARE (AMARE; [2])	Herbicidal activity (scale 0 to 100), IPOSS (IPOSS; [1])	Herbicidal activity (scale 0 to 100), IPOSS (IPOSS; [2])	also measured
Cc1ccc2c(n1)C(=O)N(c1cccc(S(C)(=O)=O)c1C)C2=O [Example 3, N-(2-Methyl-3-methylsulfonylphenyl)-6-methylpyridine-2,3-dicarboximide]	180 to 181							
CCCNC(=O)c1nc(Cl)c(C)cc1C(=O)Nc1cccc(Cl)c1C								Herbicidal activity (scale 0 to 100), GALAP (GALAP): 100; Herbicidal activity (scale 0 to 100), IPOSS (IPOSS; application rate 0.5 kg of a.s./ha): 100; Herbicidal activity (scale 0 to 100), VIOAR (VIOAR): 100; Herbicidal activity (scale 0 to 100), ECHCG (ECGCG): 100
CCCNC(=O)c1nc(C)ccc1C(=O)Nc1cccc2ccccc12 [drawing 67]		75	85	98	100	98	100	
CCCNC(=O)c1nc(C)ccc1C(=O)Nc1cccc2ccccc12 [Example 1, N-n-Propyl-3-(1-naphthyl)aminocarbonyl-6-methylpyridine-2-carboxamide]	175 to 178							
CCCNC(=O)c1nc(C)ccc1C(=O)Nc1cccc(SC)c1C [Example 2, N-n-Propyl-3-(2-methyl-3-methylthiophenyl)aminocarbonyl-6-methylpyridine-2-carboxamide]	151 to 152							
CCCNC(=O)c1nc(OC)c(Cl)cc1C(=O)Nc1cccc(Cl)c1C		75	85	98	100	98	100	Herbicidal activity (scale 0 to 100), SOLNI (SOLNI; [1]): 100; Herbicidal activity (scale 0 to 100), SOLNI (SOLNI; [2]): 100
